Reference: US20250304537A1 (Repare Therapeutics Inc., priority 2022, published 2025)
Where two headings read alike, the source gives them in different places.

How the values were obtained:
[1] = target: recombinant human Myt1 (full length PKMYT1) (Homo sapiens (Human), UniProt Q99640); assay: Recombinant human Myt1 kinase assay (ADP-Glo); format: biochemical; conditions: 10 μM ATP
How it was run: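 Full-length insect-cell-expressed human Myt1 (18 nM final) was preincubated with compound (0.5% DMSO) for 15 min at 22 °C. The reaction ran with 10 μM ATP for 60 min at 30 °C in HEPES buffer with Mg2+/Mn2+ and DTT. ADP formed was read by ADP-Glo luminescence, giving IC50 and % max inhibition.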

[2] = tested on: PKMYT1 (CDK1 pThr14) in FUOV1 cells; assay: PKMYT1 cell-based activity assay, CDK1 pThr14 AlphaLISA in FUOV1 cells; conditions: read-out: FUOV-1 CDK1 pThr14 IC50
How it was run: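 FUOV1 cells were treated with PKMYT1 inhibitor for 2 h at 37 °C, then lysed. CDK1 pThr14 was measured by AlphaLISA, pairing an anti-pThr14 antibody with an anti-total CDK1 antibody (5 nM each). Signal read at 680/615 nm and used to derive IC50.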

Chain of recombinant human Myt1 (full length PKMYT1) (Q99640 whole entry): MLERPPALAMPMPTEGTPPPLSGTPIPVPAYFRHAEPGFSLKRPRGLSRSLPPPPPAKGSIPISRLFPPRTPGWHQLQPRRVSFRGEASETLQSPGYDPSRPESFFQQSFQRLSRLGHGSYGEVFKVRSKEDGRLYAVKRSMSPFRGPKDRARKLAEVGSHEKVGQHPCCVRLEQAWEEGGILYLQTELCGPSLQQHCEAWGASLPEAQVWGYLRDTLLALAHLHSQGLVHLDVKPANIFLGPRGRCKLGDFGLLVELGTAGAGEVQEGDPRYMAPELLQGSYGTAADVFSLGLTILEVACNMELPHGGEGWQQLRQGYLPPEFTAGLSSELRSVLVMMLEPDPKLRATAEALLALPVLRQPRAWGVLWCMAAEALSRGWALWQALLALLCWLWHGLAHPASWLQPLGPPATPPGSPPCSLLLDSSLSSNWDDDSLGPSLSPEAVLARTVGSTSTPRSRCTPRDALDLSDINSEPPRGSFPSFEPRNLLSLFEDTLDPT

SMILES | IC50 [1] [nM] | IC50 ([2]; 2 h, 2 h incubation) [nM] | also measured
Cc1ccc2[nH]ncc2c1-c1nc(-c2ccccc2NC(=O)C2(C)COC2)nc(C(N)=O)c1N [Compound 408] | 7 | – | IC50 ([2]; 2 h, 2 h compound incubation): 9 nM
Cc1ccc(-c2nc(C(N)=O)c(N)c(-c3c(C)ccc4[nH]ncc34)n2)s1 [Compound 110] | 23 | 883 | –
CC(=O)Nc1cccc(-c2cc(-c3c(C)ccc(O)c3C)c(N)c(C(N)=O)n2)c1 [Compound 49] | 6 | 137 | –
COCCCOc1nccc(-c2cc(-c3c(C)ccc4[nH]ncc34)c(N)c(C(N)=O)n2)n1 [Compound 197] | 12 | 267 | –
Cc1ccc(O)c(C)c1-c1cc(Cl)nc(C(N)=O)c1N [Compound 17] | 36 | 8670 | –
Cc1ccc2[nH]ncc2c1-c1nc(-c2cc(F)ccc2NS(=O)(=O)C2CC2)nc(C(N)=O)c1N [Compound 481] | 2 | – | IC50 ([2]; 2 h, 2 h compound incubation): 83 nM
Cc1ccc2[nH]ncc2c1-c1cc(-c2cccc(OCc3ccccn3)n2)nc(C(N)=O)c1N [Compound 228] | 6 | 387 | –
Cc1ccc2[nH]ncc2c1-c1nc(-c2cccnc2Nc2cccc(F)c2)nc(C(N)=O)c1N [Compound 600] | 10 | – | IC50 ([2]; 2 h, 2 h compound incubation): 885 nM
Cc1ccc2[nH]ncc2c1-c1nc(Nc2ncccc2-c2ccncn2)nc(C(N)=O)c1N [Compound 818, 5-amino-6-(5-methyl-1H-indazol-4-yl)-2-((3-(pyrimidin-4-yl)pyridin-2-yl)amino)pyrimidine-4-carboxamide] | 3880 | – | IC50 ([2]; 2 h, 2 hours with compound): > 10000 nM
Cc1ccc2[nH]ncc2c1-c1nc(-c2cccnc2Nc2cccnc2C)nc(C(N)=O)c1N [Compound 623] | 4 | – | IC50 ([2]; 2 h, 2 h compound incubation): 179 nM
Cc1ccc2[nH]ncc2c1-c1nc(-c2cc(F)c(F)cc2NS(=O)(=O)C2CC2)nc(C(N)=O)c1N [Compound 480] | 5 | – | IC50 ([2]; 2 h, 2 h compound incubation): 158 nM
CSc1nccc(-c2cc(-c3c(C)ccc4[nH]ncc34)c(N)c(C(N)=O)n2)n1 [Compound 167] | 8 | 414 | –
Cc1ccc(O)c(C)c1-c1cc(-c2ccns2)cc(C(N)=O)c1N [Compound 92] | 5 | 131 | –
Cc1ccc2[nH]ncc2c1-c1cc(-c2ccnc(OCCO)n2)nc(C(N)=O)c1N [Compound 299] | 13 | 232 | –
Cc1ccc2[nH]ncc2c1-c1cc(-c2ccnc(OCc3ncccn3)n2)nc(C(N)=O)c1N [Compound 251] | 3 | – | IC50 ([2]; 2 h incubation): 46 nM
Cc1ccc2[nH]ncc2c1-c1cc(-c2cccc(OCCN3CCCC3)n2)nc(C(N)=O)c1N [Compound 180] | 10 | 99 | –
Cc1ccc(-c2cc(-c3c(C)ccc(O)c3C)c(N)c(C(N)=O)n2)nc1 [Compound 40] | 4 | 208 | –
Cc1ccc2[nH]ncc2c1-c1cc(-c2cccc(N[C@H]3C[C@H](O)C3)n2)nc(C(N)=O)c1N [Compound 322] | 10 | 164 | –
Cc1ccc2[nH]ncc2c1-c1nc(-c2cn(C)nc2NC2CCCC2)nc(C(N)=O)c1N [Compound 900] | 6 | – | IC50 ([2]; 2 h, 2 hours with compound): 46 nM
Cc1ccc2[nH]ncc2c1-c1nc(-c2ccccc2NCC(F)F)cc(C(N)=O)c1N [Compound 412] | 4 | – | IC50 ([2]; 2 h, 2 h compound incubation): 223 nM

SMILES | IC50 [1] [nM] | IC50 ([2]; 2 h, 2 h incubation) [nM] | also measured
Cc1ccc2[nH]ncc2c1-c1nc(-c2ccccc2NC(=O)OC(C)(C)C)nc(C(N)=O)c1N [Compound 474] | 16 | – | IC50 ([2]; 2 h, 2 h compound incubation): 398 nM
COC(C)COc1nccc(-c2cc(-c3c(C)ccc4[nH]ncc34)c(N)c(C(N)=O)n2)n1 (stereo not drawn) [Compound 303] | 7 | 155 | –
Cc1ccc2[nH]ncc2c1-c1cc(-c2ccnc(Sc3ccccc3)n2)nc(C(N)=O)c1N [Compound 177, 3-amino-4-(5-methyl-1H-indazol-4-yl)-6-(2-(phenylthio)pyrimidin-4-yl)picolinamide] | 13 | 346 | –
Cc1ccc(O)cc1-c1nc(-c2ccc(N3CCN(CCO)CC3)cc2)nc(C(N)=O)c1N [Compound 6] | 24 | 1010 | –
Cc1ccc(O)c(C)c1-c1cc(-c2ccnc(N)c2)nc(C(N)=O)c1N [Compound 14] | 4 | – | IC50 ([2]; 2 h incubation): 132 nM
Cc1ccc2[nH]ncc2c1-c1cc(-c2cccc(OC3(c4ncccn4)COC3)n2)nc(C(N)=O)c1N [Compound 256] | 21 | 132 | –
CC(C)(C)C(=O)Nc1ccccc1-c1nc(C(N)=O)c(N)c(-c2c(Cl)ccc3[nH]ncc23)n1 [Compound 403] | 2 | – | IC50 ([2]; 2 h, 2 h compound incubation): 14 nM
Cc1ccc2[nH]ncc2c1-c1nc(-c2cccc(OCC#N)c2)nc(C(N)=O)c1N [Compound 288] | 8 | 652 | –
Cc1ccc2[nH]ncc2c1-c1cc(-c2ccnc(OC[C@H](N)c3ccccc3)n2)nc(C(N)=O)c1N [Compound 342] | 3 | 6 | –
Cc1ccc2[nH]ncc2c1-c1nc(-c2cccnc2NC2CC(OC(F)F)C2)nc(C(N)=O)c1N (stereo not drawn) [Compound 893] | < 3 | – | IC50 ([2]; 2 h, 2 hours with compound): 209 nM
Cc1ccc2[nH]ncc2c1-c1nc(-c2cccnc2Nc2cscn2)nc(C(N)=O)c1N [Compound 894] | 17 | – | IC50 ([2]; 2 h, 2 hours with compound): 447 nM
Cc1ccc2[nH]ncc2c1-c1cc(-c2ccnc(OC3(C)COC3)n2)nc(C(N)=O)c1N [Compound 220] | 4 | 150 | –
Cc1ccc2[nH]ncc2c1-c1cc(-c2ccnc(OC3CCCC3)n2)nc(C(N)=O)c1N [Compound 170] | 23 | 1100 | –
CCNC(=O)c1ccccc1-c1nc(C(N)=O)c(N)c(-c2c(C)ccc3[nH]ncc23)n1 [Compound 807] | 4050 | – | IC50 ([2]; 2 h, 2 hours with compound): > 10000 nM
Cc1ccc2[nH]ncc2c1-c1cc(-c2cccc(OCc3cnccn3)n2)nc(C(N)=O)c1N [Compound 250] | 8 | 752 | –
Cc1ccc2[nH]ncc2c1-c1c(N)c(C(N)=O)cc2c1oc1ccccc12 [Compound 418, 3-amino-4-(5-methyl-1H-indazol-4-yl)dibenzo[b,d]furan-2-carboxamide] | 27 | – | IC50 ([2]; 2 h, 2 h compound incubation): 1330 nM
Cc1ccc(O)c(C)c1-c1cc(-c2ncc(F)cc2F)nc(C(N)=O)c1N [Compound 39] | 7 | 266 | –
Cc1ccc2[nH]ncc2c1-c1cc(-c2cccc(OCc3nccs3)n2)nc(C(N)=O)c1N [Compound 261] | 6 | 544 | –
COCC(Oc1nccc(-c2cc(-c3c(C)ccc4[nH]ncc34)c(N)c(C(N)=O)n2)n1)c1ccccc1 (stereo not drawn) [Compound 206] | 8 | 554 | –
Cc1ccc2[nH]ncc2c1-c1nc(-c2ccccc2NC(=O)C2CC(F)(F)C2)nc(C(N)=O)c1N [Compound 415] | 8 | – | IC50 ([2]; 2 h, 2 h compound incubation): 210 nM

SMILES | IC50 [1] [nM] | IC50 ([2]; 2 h, 2 h incubation) [nM] | also measured
Cc1ccc2[nH]ncc2c1-c1cc(-c2cccc(N[C@H](CO)c3ccccc3)n2)nc(C(N)=O)c1N [Compound 274] | 3 | 136 | –
Cc1ccc2[nH]ncc2c1-c1nc(-c2ccccn2)nc(C(N)=O)c1N [Compound 117] | 90 | – | –
Cc1ccc(O)cc1-c1cc2cccnc2c(C(N)=O)c1N [Compound 1, 7-amino-6-(5-hydroxy-2-methylphenyl)quinoline-8-carboxamide] | > 50000 | – | –
Cc1ccc2[nH]ncc2c1-c1cc(-c2ccnc(OC3CN(C(=O)OC(C)(C)C)C3)n2)nc(C(N)=O)c1N [Compound 193] | 191 | – | –
Cc1ccc2[nH]ncc2c1-c1cc(-c2cccnc2)nc(C(N)=O)c1N [Compound 97] | 54 | – | –
Cc1ccc(O)cc1-c1nc(-c2cc(F)cc(F)c2)nc(C(N)=O)c1N [Compound 22] | 18 | – | –
Cc1ccc2[nH]ncc2c1-c1cc(-c2ncccn2)nc(C(N)=O)c1N [Compound 219] | 56 | – | –
Cc1ccc2[nH]ncc2c1-c1cc(-c2ccnc(N[C@@H](CO)Cc3ccccc3)n2)nc(C(N)=O)c1N (atropisomer, axis not shown) [Compound 383] | 2 | – | –
Cc1ccc2[nH]ncc2c1-c1cc(-c2ccccn2)cc(C(N)=O)c1N [Compound 137, 2-amino-3-(5-methyl-1H-indazol-4-yl)-5-(pyridin-2-yl)benzamide] | 46 | – | –
Cc1ccc(O)cc1-c1nc(-c2cnn(C)c2)nc(C(N)=O)c1N [Compound 34] | 81 | – | –
Cc1ccc2[nH]ncc2c1-c1cc(-c2ccn(C)n2)nc(C(N)=O)c1N [Compound 171] | 96 | – | –
Cc1ccc2[nH]ncc2c1-c1cc(-c2cccc(OCC(N)C(F)(F)F)n2)nc(C(N)=O)c1N (stereo not drawn) [Compound 355] | 7 | – | –
Cc1ccc2[nH]ncc2c1-c1nc(-c2ccnc(N3CCN(C)CC3)c2)nc(C(N)=O)c1N [Compound 154] | 30 | – | –
Cc1ccc2[nH]ncc2c1-c1nc(-c2ccccc2)nc(C(N)=O)c1Cl [Compound 75, 5-chloro-6-(5-methyl-1H-indazol-4-yl)-2-phenylpyrimidine-4-carboxamide] | > 2000 | – | –
Cc1ccc2n[nH]cc2c1-c1cc(-c2cccc(=O)[nH]2)nc(C(N)=O)c1N [Compound 243] | 73 | – | –
Cc1ccc2[nH]ncc2c1-c1nc(-c2cccc(CO)c2)nc(C(N)=O)c1N [Compound 305] | 81 | – | –
Cc1ccc(O)cc1-c1nc(C2CCC(F)(F)CC2)nc(C(N)=O)c1N [Compound 41, 5-amino-2-(4,4-difluorocyclohexyl)-6-(5-hydroxy-2-methylphenyl)pyrimidine-4-carboxamide] | 827 | – | –
Cc1ccc2[nH]ncc2c1-c1cc(-c2ccnc(OCCc3nccn3C)n2)nc(C(N)=O)c1N [Compound 264] | 9 | – | –
